US20050250801A1, “Method of treating cancer with azaspirane compositions” (priority 2003, published 2005)
Read-outs that look alike come from different tables or passages of the source.

Experiments:
CaCo-2 cells = assay: Induction of apoptosis, DNA fragmentation analysis, CaCo-2; format: cell-based, human; conditions: 12 hours treatment
Protocol: T84, CaCo-2 and HUVEC cells, respectively, were grown in 100 mm dishes for 7-9 days, culture media for HUVEC was EGM-2 (Clonetics, BioWhitaker Co.), until they reached semi-confluency. Cell monolayers were then treated for 12 hours (CaCo-2 and T84) and 16 hours (HUVEC), respectively, at the indicated concentrations of N,N,-diethyl-8,8-dipropyl-2-azaspiro[4,5]decane-2-propanamine dimaleate (Compound 1) in culture media. Cells were collected by trypsinization and the apoptotic DNA was isolated from these cells following the instructions of the DNA fragmentation analysis kit (Boehringer Mannheim Corp., Indianapolis, Ind.). The apoptotic DNA was evaluated using 1.5% agarose gel electrophoresis followed by staining with ethidium bromide. M denotes the lane containing molecular weight markers of DNA.

UACC-257 = assay: NCI in vitro SRB assay, Melanoma; format: cell-based; conditions: for CC50 / GI50: Homo sapiens
Protocol: (§1) An in vitro assay which tested the ability of N,N,-diethyl-8,8-dipropyl-2-azaspiro[4,5]decane-2-propanamine dimaleate (Compound 1) to inhibit the growth of known cancer cell lines was performed by the National Cancer Institute in accordance with standard procedures. See: Lin, Z. X., Hoult, J. R., and Raman, A. Sulphorhodamine B assay for measuring proliferation of a pigmented melanocyte cell line and its application to the evaluation of crude drugs used in the treatment of vitiligo. J Ethnopharmacol. 66: 141-150, 1999. Briefly, selected tumor cell lines were cultured in media containing five different concentrations of Compound 1. After 48 hours of continuous exposure, a sulforhodamine B (SRB) assay was used to estimate cell viability or growth via optical measurements.
(§2) From the measurements, the following values were determined: 1) the concentration of Compound 1 at which a tumor cell growth inhibition of 50% (relative to control) occurs (GI50), 2) the concentration of Compound 1 at which no growth occurs (total growth inhibition, TGI), and 3) the concentration of Compound 1 at which the […] (LC 50). […] FIG. 6 illustrates, graphically, tumor cell growth as a function of Compound 1 concentration of the scanned tumor cell lines.

LOX IMVI = assay: NCI in vitro SRB assay, Melanoma; format: cell-based; conditions: for GI50 / CC50: Homo sapiens
Protocol: as §1, §2

SK-MEL-2 = assay: NCI in vitro SRB assay, Melanoma; format: cell-based; conditions: for CC50 / GI50: Homo sapiens
Protocol: as §1, §2

SK-MEL-5 = assay: NCI in vitro SRB assay, Melanoma; format: cell-based; conditions: for CC50 / GI50: Homo sapiens
Protocol: as §1, §2

OVCAR-4 = assay: NCI in vitro SRB assay, Ovarian Cancer; format: cell-based
Protocol: as §1, §2

SK-OV-3 = assay: NCI in vitro SRB assay, Ovarian Cancer; format: cell-based
Protocol: as §1, §2

OVCAR-8 = assay: NCI in vitro SRB assay, Ovarian Cancer; format: cell-based
Protocol: as §1, §2

IGROV1 = assay: NCI in vitro SRB assay, Ovarian Cancer; format: cell-based
Protocol: as §1, §2

OVCAR-5 = assay: NCI in vitro SRB assay, Ovarian Cancer; format: cell-based
Protocol: as §1, §2

OVCAR-3 = assay: NCI in vitro SRB assay, Ovarian Cancer; format: cell-based
Protocol: as §1, §2

[1] = UACC-257, Log10 conc -4.0 Moles/L
[2] = UACC-257, Log10 conc -5.0 Moles/L
[3] = UACC-257, Log10 conc -6.0 Moles/L
[4] = UACC-257, Log10 conc -7.0 Moles/L
[5] = UACC-257, Log10 conc -8.0 Moles/L
[6] = SK-MEL-2, Log10 conc -4.0 Moles/L
[7] = SK-MEL-2, Log10 conc -5.0 Moles/L
[8] = SK-MEL-2, Log10 conc -6.0 Moles/L
[9] = SK-MEL-2, Log10 conc -7.0 Moles/L
[10] = SK-MEL-2, Log10 conc -8.0 Moles/L
[11] = SK-MEL-5, Log10 conc -4.0 Moles/L
[12] = SK-MEL-5, Log10 conc -5.0 Moles/L
[13] = SK-MEL-5, Log10 conc -6.0 Moles/L
[14] = SK-MEL-5, Log10 conc -7.0 Moles/L
[15] = SK-MEL-5, Log10 conc -8.0 Moles/L

## CCCC1(CCC)CCC2(CCN(CCCN(CC)CC)C2)CC1.O=C(O)/C=C\C(=O)O.O=C(O)/C=C\C(=O)O [Compound 1, N,N,-diethyl-8,8-dipropyl-2-azaspiro[4,5]decane-2-propanamine dimaleate]
CaCo-2 cells
  DNA ladder formation (apoptosis): formation of DNA laddering in a dose-dependent manner
UACC-257; UACC-257, read-out: LC50
  CC50: 8.74 µM
UACC-257; UACC-257, read-out: Log10 LC50 (converted)
  CC50: 8.71 µM
UACC-257; UACC-257, read-out: GI50
  GI50: 1.74 µM
UACC-257; UACC-257, read-out: Log10 GI50 (converted)
  GI50: 1.74 µM
UACC-257; UACC-257
  Log10 TGI: −5.41
  TGI: 3.9 µM
UACC-257; [1]
  Mean Optical Densities: 0.113
  Percent Growth: −75%
UACC-257; [2]
  Mean Optical Densities: 0.190
  Percent Growth: −58%
UACC-257; [3]
  Mean Optical Densities: 1.302
  Percent Growth: 84%
UACC-257; [4]
  Mean Optical Densities: 1.427
  Percent Growth: 97%
UACC-257; [5]
  Mean Optical Densities: 1.403
  Percent Growth: 94%
LOX IMVI
  Log10 TGI: −5.74
  TGI: 1.84 µM
LOX IMVI; read-out: GI50
  GI50: 0.515 µM
LOX IMVI; read-out: LC50
  CC50: 4.29 µM
LOX IMVI; read-out: Log10 GI50 (converted)
  GI50: 0.513 µM
LOX IMVI; read-out: Log10 LC50 (converted)
  CC50: 4.27 µM
LOX IMVI; Log10 conc -4.0 Moles/L
  Mean Optical Densities: −0.030
  Percent Growth: −100%
LOX IMVI; Log10 conc -5.0 Moles/L
  Mean Optical Densities: −0.044
  Percent Growth: −100%
LOX IMVI; Log10 conc -6.0 Moles/L
  Mean Optical Densities: 0.595
  Percent Growth: 36%
LOX IMVI; Log10 conc -7.0 Moles/L
  Mean Optical Densities: 1.037
  Percent Growth: 85%
LOX IMVI; Log10 conc -8.0 Moles/L
  Mean Optical Densities: 1.072
  Percent Growth: 89%
SK-MEL-2; SK-MEL-2, read-out: LC50
  CC50: > 100 µM
SK-MEL-2; SK-MEL-2, read-out: Log10 LC50 (converted)
  CC50: > 100 µM
SK-MEL-2; SK-MEL-2, read-out: GI50
  GI50: 3.45 µM
SK-MEL-2; SK-MEL-2, read-out: Log10 GI50 (converted)
  GI50: 3.47 µM
SK-MEL-2; SK-MEL-2
  Log10 TGI: >−4.00
  TGI: >100 µM
SK-MEL-2; [6]
  Mean Optical Densities: 0.168
  Percent Growth: 7%
SK-MEL-2; [7]
  Mean Optical Densities: 0.167
  Percent Growth: 7%
SK-MEL-2; [8]
  Mean Optical Densities: 1.199
  Percent Growth: 100%
SK-MEL-2; [9]
  Mean Optical Densities: 1.191
  Percent Growth: 99%
SK-MEL-2; [10]
  Mean Optical Densities: 1.191
  Percent Growth: 99%
SK-MEL-5; SK-MEL-5, read-out: LC50
  CC50: 5.25 µM
SK-MEL-5; SK-MEL-5, read-out: Log10 LC50 (converted)
  CC50: 5.25 µM
SK-MEL-5; SK-MEL-5, read-out: GI50
  GI50: 1.28 µM
SK-MEL-5; SK-MEL-5, read-out: Log10 GI50 (converted)
  GI50: 1.29 µM
SK-MEL-5; SK-MEL-5
  Log10 TGI: −5.59
  TGI: 2.59 µM
SK-MEL-5; [11]
  Mean Optical Densities: −0.001
  Percent Growth: −100%
SK-MEL-5; [12]
  Mean Optical Densities: 0.021
  Percent Growth: −96%
SK-MEL-5; [13]
  Mean Optical Densities: 1.420
  Percent Growth: 68%
SK-MEL-5; [14]
  Mean Optical Densities: 1.797
  Percent Growth: 95%
SK-MEL-5; [15]
  Mean Optical Densities: 1.779
  Percent Growth: 93%
OVCAR-4; Homo sapiens, OVCAR-4, read-out: Log10 LC50 (converted)
  CC50: 6.61 µM
OVCAR-4; Homo sapiens, OVCAR-4, read-out: Log10 GI50 (converted)
  GI50: 1.62 µM
OVCAR-4; OVCAR-4
  Log10 TGI: −5.49
SK-OV-3; Homo sapiens, SK-OV-3, read-out: Log10 LC50 (converted)
  CC50: 58.9 µM
SK-OV-3; Homo sapiens, SK-OV-3, read-out: Log10 GI50 (converted)
  GI50: 4.57 µM
SK-OV-3; SK-OV-3
  Log10 TGI: −5.10
OVCAR-8; Homo sapiens, OVCAR-8, read-out: Log10 LC50 (converted)
  CC50: > 100 µM
OVCAR-8; Homo sapiens, OVCAR-8, read-out: Log10 GI50 (converted)
  GI50: 2.69 µM
OVCAR-8; OVCAR-8
  Log10 TGI: −4.92
IGROV1; Homo sapiens, IGROV-1, read-out: Log10 LC50 (converted)
  CC50: > 100 µM
IGROV1; Homo sapiens, IGROV-1, IGROV1, read-out: Log10 GI50 (converted)
  GI50: 2.45 µM
IGROV1; IGROV1
  Log10 TGI: >−4.00
OVCAR-5; Homo sapiens, OVCAR-5, read-out: Log10 LC50 (converted)
  CC50: 7.08 µM
OVCAR-5; Homo sapiens, OVCAR-5, read-out: Log10 GI50 (converted)
  GI50: 2.4 µM
OVCAR-5; OVCAR-5
  Log10 TGI: −5.39
OVCAR-3
  Log10 TGI: −5.21
OVCAR-3; Homo sapiens, read-out: Log10 GI50 (converted)
  GI50: 2.34 µM
